From US20250154548A1, “CONTROL OF ENZYMATIC NUCLEIC ACID SYNTHESIS VIA ELECTROCHEMICAL MEANS” (The Charles Stark Draper Laboratory, Inc., priority 2023, published 2025) come the findings set out here.

Series [1] has as its target T1, TdT-dNTP conjugates (C7-C) (Mus musculus, UniProt P09838, C155A/C188A/C216N/C302P/C378E/C404A/C438A/D179A/D325G/D356E/D411H/D441E/D501E/E183G/E226Q/E418G/E487R/F267Y/F368W/G227E/G413Q/H416D/I229L/K247Q/K250C/K276D/L167K/L260P/L327T/L381Q/M192R/M313Q/M339K/M471L/N304T/Q166K/Q278R/Q287R/Q359K/Q371K/Q390L/R483N/S195A/S223R/S248A/S275E/S282T/S312E/T321Q/T465R/V311I/V320W/V484T).
T1 construct: nucleotide (dNTP) covalently tethered through a cleavable linker; That it is dCTP and sits on Cys102 is my inference from the name C7-C and from K102C
Kind of series: Bead-based TdT extension assay. The format is biochemical. Conditions: for inhibition of TdT extension: various chelator concentrations.
Description: Extension assay was performed for 2 minutes at 37° C.
The ability of chelators to inhibit stepwise addition of nucleotides via TdT-dNTP conjugates was tested using a bead based assay: Magnetic beads (Dynabeads MyOne streptavidin beads (C1)) were functionalized with biotinylated, double-stranded DNA (dsDNA) that contains a 3′ 30-base overhang, which serves as the seed oligo for extension. Beads were prepared in buffer (20 mM potassium phosphate, 100 mM NaCl, pH 6.5) and washed with 3 times with Superblock prior to use. TdT-dNTP conjugates were prepared at 10 μM concentrations in buffer solution (20 mM potassium phosphate buffer, 100 mM NaCl, pH 6.5). Chelators and MnCl2 solutions were prepared at appropriate ratios (in water) so that final reaction concentrations were at 125 nM in MnCl2 and incubated for 10 minutes at room temperature. Once incubation was complete, TdT-dNTP conjugates were added to the chelator/MnCl2 solutions so that TdT-dNTP conjugates were at a final concentration of 5 μM. As controls, solutions with no chelator or with TCEP (for recovery activity) were also prepared.
Once all reagents were prepared, ds-DNA functionalized beads (10 μL volume) were added to low-bind Eppendorf tubes, followed by the TdT-dNTP conjugate/chelator/MnCl2 solution (50 μL total reaction volume). The tubes were incubated at 37° C. for 2 min, then tubes were placed on ice for 1 min. The beads were washed by placing tubes on a magnetic tube rack three times with 1 mL of buffer (20 mM potassium phosphate, 100 mM NaCl, pH 6.5). To elute the ssDNA from the washed beads, the tubes were placed in the magnetic rack, and the supernatant was removed and replaced with 0.1 M NaOH (aq). After thorough mixing with a pipette and re-settling of the beads using the magnetic rack, the supernatant was transferred to a fresh low-bind tube, and 50 μL of 0.1 M HCl (aq) was added to neutralize the solution.
Sequencing sample preparation began with polyadenylation (for sequences expected to end in thymine, cytosine, or guanine) or the addition of a poly(T) tail (for sequences expected to end in adenine) to the 3′ end of each DNA sample using commercial TdT. The samples were then amplified using primers that bind to a conserved 5′ sequence and the complementary 3′ tail while incorporating Illumina sequencing priming sites into the synthesized amplicons. This step was performed using qPCR in order to achieve optimal amplification of all samples regardless of input DNA concentration. A portion of each PCR product was analyzed by gel electrophoresis to confirm the size and relative abundance of the amplicons. The products of all samples were then normalized based on relative abundance and used as template for a second PCR reaction, which incorporated Illumina flow cell adaptors and a variable index into each sample. The products of the final PCR reaction were characterized by gel electrophoresis and all indexed samples were pooled together proportionally based on relative abundance. Size selection and purification of the pooled library was performed by DNA gel extraction and the final library was analyzed by Qubit dsDNA HS assay and Tapestation D1000 screentape to determine the final molar concentration. The library was then diluted, denatured and sequenced following standard Illumina protocols.

Another series deals with wild-type TdT (Mus musculus, UniProt P09838). Nature of the series: TdT extension assay with DNA-intercalating dye (SYTO 13). Conditions: metal cofactor MnCl2 pre-incubated with chelator; free nucleotides, ssDNA oligomer. The format is biochemical. On the procedure: FIG. 14 provides data from an extension assay wherein wild-type TdT is incubated with a single-stranded DNA oligomer in the presence of free nucleotides and a DNA-intercalating dye (SYTO 13). As DNA synthesis occurs, fluorescent signal increases as more interactions of the intercalating dye with the ssDNA leads to higher fluorescent signal.
Chain of wild-type TdT (P09838 149-510): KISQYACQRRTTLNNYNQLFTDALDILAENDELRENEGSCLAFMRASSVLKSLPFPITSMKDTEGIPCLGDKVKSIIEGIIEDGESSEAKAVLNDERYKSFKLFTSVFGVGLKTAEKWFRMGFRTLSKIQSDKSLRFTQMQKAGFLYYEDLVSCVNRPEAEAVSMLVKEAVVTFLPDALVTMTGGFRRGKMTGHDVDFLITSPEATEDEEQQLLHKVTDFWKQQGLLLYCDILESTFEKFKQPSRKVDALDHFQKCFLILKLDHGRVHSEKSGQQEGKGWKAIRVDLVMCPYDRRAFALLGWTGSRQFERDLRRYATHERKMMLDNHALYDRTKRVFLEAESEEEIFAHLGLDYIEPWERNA

A short description of series [2]: FLPA fluorescence intensity versus bulk electrolyte pH calibration. In kind it is physicochemical. Conditions: from fluorescence intensity vs pH. The text has this:
FIGS. 3A-C show how voltage-induced pH change can be visualized in real-time with a freely diffusing non-electroactive fluorescent probe. […] A large Pt counter electrode (CE, anode) surrounds a smaller Pt working electrode (WE, cathode). The two electrodes are separated by a 10 μm dielectric SiO2 region. The WE (410 μm×510 μm) contains a microarray of 300-nm diameter wells that cannot be optically resolved but appear as a smaller square region (˜250 μm×325 μm), made brighter by optical interference. The microarray is used as the region of interest (ROI) for all subsequent analysis. Images were acquired with an Excelitas X-Cite Xylis XT720S (360-720 nm LED) source, 1s exposure time, and GFP (525/50 nm) filter set.
Data points represent the average of three technical replicates, and error bars represent one standard deviation. The intensity follows a sigmoidal relationship as the fraction of deprotonated, fluorescent FLPA (inset) increases with pH (pKa˜6.5). Thus, FLPA is sensitive to an acid-OFF/neutral-ON pH switch over pH 5 to 8. The visualization strategy is amenable to other non-electroactive probes with different pKa values.

Where [3] appears, read: 5 μM C7-C, 0.250 mM Mn2+, 2 minutes at 37° C.

The term pKa denotes the negative logarithm of the acid dissociation constant. The low end stands for a stronger acid or weaker base, the high end for a weaker acid or stronger base.

T1 sequence (P09838 149-510 with the stated changes): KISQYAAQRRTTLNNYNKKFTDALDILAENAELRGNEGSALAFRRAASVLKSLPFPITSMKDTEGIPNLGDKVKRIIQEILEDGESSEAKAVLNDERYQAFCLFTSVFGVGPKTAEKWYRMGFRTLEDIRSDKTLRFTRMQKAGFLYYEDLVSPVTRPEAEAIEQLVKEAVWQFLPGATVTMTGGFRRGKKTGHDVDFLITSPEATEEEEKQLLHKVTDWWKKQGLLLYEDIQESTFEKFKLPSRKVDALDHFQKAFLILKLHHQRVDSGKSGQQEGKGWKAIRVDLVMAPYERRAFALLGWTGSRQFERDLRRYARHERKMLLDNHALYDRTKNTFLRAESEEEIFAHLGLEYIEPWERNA

Consider `O=C(O)CN(CC(=O)O)C(=O)OCCSSCCOC(=O)N(CC(=O)O)CC(=O)O` [tetraacid 2, 3,14-bis(carboxymethyl)-4,13-dioxo-5,12-dioxa-8,9-dithia-3,14-diazahexadecanedioic acid], for which the “inhibition of TdT extension” value in series [1] (setting [3]) was “inhibition dependence on feed ratio of metal to inhibitor and choice of chelator”. In addition, on wild-type TdT, the “assayed ssDNA growth (fluorescent signal)” value (shortened to “assayed ssDNA growth”) is on record as “no assayed ssDNA growth is observed”. For the compound `O=C(O)CN(CCN(CC(=O)O)CC(=O)O)CC(=O)O` [EDTA, Ethylenediaminetetraacetic Acid, reference compound], the “fraction of extended sequences” value in series [1] (various chelator:metal ratios, 5 μM C7-C, 0.250 mM Mn2+, 2 minutes at 37° C.) is recorded as “markedly decreased”. The “assayed ssDNA growth” value on wild-type TdT is “little-to-no-assayed ssDNA growth”. As for `c1ccc(SSc2ccccn2)nc1` [DTP, 2,2′-dithiopyridine, reference compound], the “inhibition of TdT extension” value in series [1] (setting [3]) is “inhibition dependence on feed ratio of metal to inhibitor”. In the case of `O=C(NCCc1ccc(O)c(O)c1)OCCSSCCOC(=O)NCCc1ccc(O)c(O)c1` [catechol 1, disulfanediylbis(ethane-2,1-diyl) bis((3,4-dihydroxyphenethyl)carbamate)], the “TdT activity with chelator pre-incubated with reducing agent TCEP” value in series [1] (TCEP reducing agent added, chelator cleaved) is given as “TdT activity is recovered”. Also, in series [1] (setting [3]), the “inhibition of TdT extension” value was “inhibition dependence on feed ratio of metal to inhibitor and choice of chelator”. Also, on wild-type TdT, the “assayed ssDNA growth” value is reported as “no assayed ssDNA growth is observed”. In the case of `NCCOCCOCCOCCOCCOCCOCCNC(=S)Nc1ccc2c(c1)C(=O)OC21c2ccc(O)cc2Oc2cc(O)ccc21` [FLPA, fluorescein-PEG6-amine], in series [2], the pKa is on record as ~6.5.
